Results: BindingDB's records for doi:10.1124/jpet.104.081539 (Kyowa Hakko Kogyo, 2005)

Experiments:
Thromboxane-A synthase = target: T1, Thromboxane-A synthase (Homo sapiens, UniProt P24557)
T1 sequence (P24557 whole entry): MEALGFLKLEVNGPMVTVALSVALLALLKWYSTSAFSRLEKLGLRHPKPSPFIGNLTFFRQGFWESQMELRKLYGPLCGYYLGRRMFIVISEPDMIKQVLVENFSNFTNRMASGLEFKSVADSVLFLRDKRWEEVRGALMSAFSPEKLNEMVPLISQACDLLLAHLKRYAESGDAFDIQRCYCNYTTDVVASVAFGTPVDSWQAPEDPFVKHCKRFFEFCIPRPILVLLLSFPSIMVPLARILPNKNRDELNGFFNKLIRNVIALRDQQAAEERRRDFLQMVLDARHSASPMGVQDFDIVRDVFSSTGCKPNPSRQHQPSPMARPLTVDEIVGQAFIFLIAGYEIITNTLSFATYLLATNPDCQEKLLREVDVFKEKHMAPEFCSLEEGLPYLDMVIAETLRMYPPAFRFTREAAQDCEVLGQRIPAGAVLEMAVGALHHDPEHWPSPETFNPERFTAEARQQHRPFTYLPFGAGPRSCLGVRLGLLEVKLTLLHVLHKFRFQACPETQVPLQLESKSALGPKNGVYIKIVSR

[1] = target: T2, Alpha-2A adrenergic receptor [16-465] (Rattus norvegicus, UniProt P22909)
T2 construct: 16-465
T2 sequence (P22909 whole entry): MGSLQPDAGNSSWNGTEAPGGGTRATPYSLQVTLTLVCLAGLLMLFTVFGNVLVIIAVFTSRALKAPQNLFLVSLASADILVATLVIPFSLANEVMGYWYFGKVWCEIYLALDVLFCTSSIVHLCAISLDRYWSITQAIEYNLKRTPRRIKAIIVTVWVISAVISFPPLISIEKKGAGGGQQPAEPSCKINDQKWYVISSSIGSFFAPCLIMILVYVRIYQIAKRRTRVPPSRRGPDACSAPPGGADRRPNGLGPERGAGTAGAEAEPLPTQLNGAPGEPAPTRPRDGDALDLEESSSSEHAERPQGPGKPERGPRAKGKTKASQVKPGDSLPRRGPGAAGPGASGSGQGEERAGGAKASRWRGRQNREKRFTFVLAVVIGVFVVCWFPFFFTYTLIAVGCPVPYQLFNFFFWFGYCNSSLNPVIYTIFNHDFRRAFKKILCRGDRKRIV

[2] = target: 5-hydroxytryptamine receptor 2A (Rattus norvegicus, UniProt P14842)
[3] = target: T3, Prostaglandin G/H synthase 2 (Homo sapiens, UniProt P35354)
T3 sequence (P35354 whole entry): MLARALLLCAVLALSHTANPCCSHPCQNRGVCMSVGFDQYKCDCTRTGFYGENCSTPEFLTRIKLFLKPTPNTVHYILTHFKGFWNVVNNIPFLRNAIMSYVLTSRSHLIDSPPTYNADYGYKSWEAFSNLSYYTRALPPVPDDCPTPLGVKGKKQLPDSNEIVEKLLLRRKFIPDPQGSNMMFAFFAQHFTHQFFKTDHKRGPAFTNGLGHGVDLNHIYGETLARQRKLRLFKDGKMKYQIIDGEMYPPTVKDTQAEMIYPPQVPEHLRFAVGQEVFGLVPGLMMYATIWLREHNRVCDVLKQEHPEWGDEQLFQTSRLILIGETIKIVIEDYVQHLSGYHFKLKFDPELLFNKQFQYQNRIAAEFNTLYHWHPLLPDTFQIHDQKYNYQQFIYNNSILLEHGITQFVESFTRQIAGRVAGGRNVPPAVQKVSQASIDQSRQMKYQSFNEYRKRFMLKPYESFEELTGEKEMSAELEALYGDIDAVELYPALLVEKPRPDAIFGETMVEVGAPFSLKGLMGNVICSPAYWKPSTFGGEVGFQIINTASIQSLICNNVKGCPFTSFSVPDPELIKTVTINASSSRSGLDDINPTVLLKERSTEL

D(2) dopamine receptor = D(2) dopamine receptor (Homo sapiens, UniProt P14416)
D(1A) dopamine receptor = D(1A) dopamine receptor (Homo sapiens, UniProt P21728)
[4] = target: Prostaglandin G/H synthase 1 (Homo sapiens, UniProt P23219)
[5] = target: T4, Muscarinic acetylcholine receptor M1 (Homo sapiens, UniProt P11229)
T4 sequence (P11229 whole entry): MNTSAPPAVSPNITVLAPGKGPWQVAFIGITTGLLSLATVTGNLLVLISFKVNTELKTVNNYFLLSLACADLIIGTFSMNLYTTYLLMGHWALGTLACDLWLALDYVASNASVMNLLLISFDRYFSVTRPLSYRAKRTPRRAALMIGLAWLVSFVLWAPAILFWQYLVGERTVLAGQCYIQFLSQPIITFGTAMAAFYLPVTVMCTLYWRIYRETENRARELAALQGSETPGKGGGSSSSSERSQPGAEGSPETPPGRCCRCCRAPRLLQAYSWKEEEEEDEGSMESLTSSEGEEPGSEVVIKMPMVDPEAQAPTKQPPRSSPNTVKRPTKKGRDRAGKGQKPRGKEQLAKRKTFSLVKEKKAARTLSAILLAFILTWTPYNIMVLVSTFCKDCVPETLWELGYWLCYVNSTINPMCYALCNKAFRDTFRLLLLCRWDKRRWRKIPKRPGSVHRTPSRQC

[6] = target: T5, Prostaglandin D2 receptor (Homo sapiens, UniProt Q13258)
T5 sequence (Q13258 whole entry): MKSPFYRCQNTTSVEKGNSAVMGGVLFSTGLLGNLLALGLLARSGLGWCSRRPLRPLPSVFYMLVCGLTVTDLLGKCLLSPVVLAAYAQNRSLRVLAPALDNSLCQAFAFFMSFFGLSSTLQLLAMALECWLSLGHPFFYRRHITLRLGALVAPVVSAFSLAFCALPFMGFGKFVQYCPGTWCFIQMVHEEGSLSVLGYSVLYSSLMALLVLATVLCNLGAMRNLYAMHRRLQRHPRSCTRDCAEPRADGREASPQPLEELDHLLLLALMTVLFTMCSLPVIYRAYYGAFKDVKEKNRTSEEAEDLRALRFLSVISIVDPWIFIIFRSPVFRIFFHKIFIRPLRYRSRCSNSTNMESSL

[7] = target: Platelet-activating factor receptor (Homo sapiens, UniProt P25105)
Platelet-activating factor receptor, sequence (P25105 whole entry): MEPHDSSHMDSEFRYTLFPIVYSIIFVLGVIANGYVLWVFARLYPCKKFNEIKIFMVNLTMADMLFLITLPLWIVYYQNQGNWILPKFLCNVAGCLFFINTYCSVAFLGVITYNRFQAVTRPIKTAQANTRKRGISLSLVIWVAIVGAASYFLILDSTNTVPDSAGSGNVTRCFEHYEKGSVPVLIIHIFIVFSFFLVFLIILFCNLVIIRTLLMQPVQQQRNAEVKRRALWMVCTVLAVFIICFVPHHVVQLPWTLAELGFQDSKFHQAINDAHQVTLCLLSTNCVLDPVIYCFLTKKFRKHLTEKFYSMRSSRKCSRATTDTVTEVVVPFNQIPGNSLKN

Prostaglandin G/H synthase 1, sequence (P23219 whole entry): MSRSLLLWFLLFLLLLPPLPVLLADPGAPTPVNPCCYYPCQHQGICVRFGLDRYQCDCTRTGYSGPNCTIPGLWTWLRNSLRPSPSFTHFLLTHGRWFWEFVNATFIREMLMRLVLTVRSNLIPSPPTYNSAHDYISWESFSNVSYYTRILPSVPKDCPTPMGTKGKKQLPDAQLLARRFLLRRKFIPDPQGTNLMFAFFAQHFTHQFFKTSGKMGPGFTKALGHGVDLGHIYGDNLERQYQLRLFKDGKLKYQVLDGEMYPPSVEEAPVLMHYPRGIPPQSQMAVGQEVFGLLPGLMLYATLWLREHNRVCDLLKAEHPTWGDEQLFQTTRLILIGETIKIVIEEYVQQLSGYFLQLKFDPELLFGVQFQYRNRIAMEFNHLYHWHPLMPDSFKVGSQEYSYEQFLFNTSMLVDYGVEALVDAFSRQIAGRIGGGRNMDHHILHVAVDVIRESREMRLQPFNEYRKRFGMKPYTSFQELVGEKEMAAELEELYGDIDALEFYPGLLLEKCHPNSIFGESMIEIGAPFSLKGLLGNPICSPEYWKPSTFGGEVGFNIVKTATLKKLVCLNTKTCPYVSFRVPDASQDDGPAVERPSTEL
5-hydroxytryptamine receptor 2A, sequence (P14842 whole entry): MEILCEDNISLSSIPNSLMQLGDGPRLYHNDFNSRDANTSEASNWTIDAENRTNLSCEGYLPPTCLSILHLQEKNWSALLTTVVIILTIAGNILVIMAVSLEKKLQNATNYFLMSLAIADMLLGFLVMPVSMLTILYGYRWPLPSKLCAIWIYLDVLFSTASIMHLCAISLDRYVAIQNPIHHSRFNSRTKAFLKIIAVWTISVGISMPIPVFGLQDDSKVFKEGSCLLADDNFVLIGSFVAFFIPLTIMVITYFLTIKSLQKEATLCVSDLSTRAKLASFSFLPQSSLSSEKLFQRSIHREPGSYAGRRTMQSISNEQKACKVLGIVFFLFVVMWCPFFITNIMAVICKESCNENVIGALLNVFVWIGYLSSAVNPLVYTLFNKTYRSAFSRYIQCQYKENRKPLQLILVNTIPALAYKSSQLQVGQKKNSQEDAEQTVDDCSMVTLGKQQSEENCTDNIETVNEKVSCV
D(1A) dopamine receptor, sequence (P21728 whole entry): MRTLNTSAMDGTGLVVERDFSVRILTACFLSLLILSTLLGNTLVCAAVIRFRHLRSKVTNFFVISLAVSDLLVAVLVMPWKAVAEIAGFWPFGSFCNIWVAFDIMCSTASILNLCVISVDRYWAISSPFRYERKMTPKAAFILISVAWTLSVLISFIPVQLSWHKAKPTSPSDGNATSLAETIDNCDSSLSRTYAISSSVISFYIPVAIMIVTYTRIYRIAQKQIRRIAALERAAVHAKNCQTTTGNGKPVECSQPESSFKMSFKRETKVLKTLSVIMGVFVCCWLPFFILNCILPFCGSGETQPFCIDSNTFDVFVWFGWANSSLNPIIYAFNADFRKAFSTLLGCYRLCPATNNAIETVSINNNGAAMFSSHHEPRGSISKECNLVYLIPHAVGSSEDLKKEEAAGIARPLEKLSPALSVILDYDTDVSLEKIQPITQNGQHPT
D(2) dopamine receptor, sequence (P14416 whole entry): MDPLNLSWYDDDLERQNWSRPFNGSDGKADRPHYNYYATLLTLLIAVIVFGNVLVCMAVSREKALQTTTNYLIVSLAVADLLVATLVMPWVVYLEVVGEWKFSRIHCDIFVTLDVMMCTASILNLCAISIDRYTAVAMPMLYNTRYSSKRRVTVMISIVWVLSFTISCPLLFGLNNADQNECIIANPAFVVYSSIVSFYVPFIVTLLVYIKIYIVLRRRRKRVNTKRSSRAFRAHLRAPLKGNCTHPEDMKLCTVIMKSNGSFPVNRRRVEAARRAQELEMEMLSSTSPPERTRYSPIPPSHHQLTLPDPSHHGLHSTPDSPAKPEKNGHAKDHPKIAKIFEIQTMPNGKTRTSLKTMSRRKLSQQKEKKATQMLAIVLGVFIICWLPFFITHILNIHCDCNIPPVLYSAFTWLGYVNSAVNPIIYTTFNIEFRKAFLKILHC

| Ki (Thromboxane-A synthase) | Ki [1] | Ki [2] | Ki [3] | Ki (D(2) dopamine receptor) | Ki (D(1A) dopamine receptor) | Ki [4] | Ki [5] | Ki [6] | Ki [7] | Structure (SMILES) |
| --- | --- | --- | --- | --- | --- | --- | --- | --- | --- | --- |
| > 1000 nM | > 1000 nM | > 1000 nM | > 1000 nM | > 1000 nM | > 1000 nM | > 1000 nM | > 1000 nM | > 1000 nM | > 1000 nM | CCC(=O)N1c2ccccc2C(N(C(C)=O)c2ccccc2)CC1C (stereo not given) [K376] |
| > 1000 nM | > 1000 nM | > 1000 nM | > 1000 nM | > 1000 nM | > 1000 nM | > 1000 nM | > 1000 nM | > 1000 nM | > 1000 nM | CC(C)C(=O)N(c1ccccc1)C1CC(C)N(C(=O)c2ccccc2)c2ccccc21 (stereo not given) [K117] |
| > 1000 nM | > 1000 nM | > 1000 nM | > 1000 nM | > 1000 nM | > 1000 nM | > 1000 nM | > 1000 nM | > 1000 nM | > 1000 nM | CC1CC(N(C(=O)C2CC2)c2ccccc2)c2ccccc2N1C(=O)c1ccccc1 (stereo not given) [K604] |
